The target in this assay is T1, human full-length HSP90 (Homo sapiens, UniProt P08238).
T1 construct: E. coli expressed human full-length HSP90 protein, purified >95%; made in house; host or cells: E. coli
Kind of assay: Fluorescence polarization (FP) binding assay. The note with it: competitive displacement of fluorescein-labelled probe from human full-length HSP90; activity range; read-out: activity in the fluorescence polarization assay. The text has this: Fluorescence Polarization Assay
Fluorescence polarization {also known as fluorescence anisotropy} measures the rotation of a fluorescing species in solution, where the larger molecule the more polarized the fluorescence emission. When the fluorophore is excited with polarized light, the emitted light is also polarized. The molecular size is proportional to the polarization of the fluorescence emission.
The fluoroscein-labelled probe—
binds to HSP90 {full-length human, full-length yeast or N-terminal domain HSP90} and the anisotropy {rotation of the probe:protein complex} is measured.
Test compound is added to the assay plate, left to equilibrate and the anisotropy measured again. Any change in anisotropy is due to competitive binding of compound to HSP90, thereby releasing probe.
Stored at room temperature. • 3) BSA (bovine serum albumen) 10 mg/ml (New England Biolabs # B9001S) • 4) 20 mM probe in 100% DMSO stock concentration. Stored in the dark at RT. Working concentration is 200 nM diluted in AR water and stored at 4° C.
• 1) Add 100 μl×buffer to wells 1A and 12A(=FP BLNK) • 2) Prepare assay mix—all reagents are kept on ice with a lid on the bucket as the probe is light-sensitive.
• 3) Aliquot 100 μl assay mix to all other wells • 4) Seal plate and leave in dark at room temp for 20 minutes to equilibrate
This gives 2.5 mM {50×} stock cpd−assuming cpds 20 mM. • 4) Repeat for wells A2 to A10. Control in columns 11 and 12. • 5) Transfer 5 μl from row A to row B—not column 12. Mix well. • 6) Transfer 5 μl from row B to row C. […] Add 2 μl of 100 mM standard cpd to wells B12-H12 {is positive control} • 13) The Z′ factor is calculated from zero controls and positive wells.
For orientation: Polarisation of emitted light reports the rotation of a fluorescent probe.

The source of these data is patent US20090163490A1, “Pyrrolopyrimidine Derivatives Used As HSP90 Inhibitors” (VERNALIS (R&D) LTD., priority 2006, published 2009).

The structures appear in SMILES notation.

T1 sequence (P08238 whole entry): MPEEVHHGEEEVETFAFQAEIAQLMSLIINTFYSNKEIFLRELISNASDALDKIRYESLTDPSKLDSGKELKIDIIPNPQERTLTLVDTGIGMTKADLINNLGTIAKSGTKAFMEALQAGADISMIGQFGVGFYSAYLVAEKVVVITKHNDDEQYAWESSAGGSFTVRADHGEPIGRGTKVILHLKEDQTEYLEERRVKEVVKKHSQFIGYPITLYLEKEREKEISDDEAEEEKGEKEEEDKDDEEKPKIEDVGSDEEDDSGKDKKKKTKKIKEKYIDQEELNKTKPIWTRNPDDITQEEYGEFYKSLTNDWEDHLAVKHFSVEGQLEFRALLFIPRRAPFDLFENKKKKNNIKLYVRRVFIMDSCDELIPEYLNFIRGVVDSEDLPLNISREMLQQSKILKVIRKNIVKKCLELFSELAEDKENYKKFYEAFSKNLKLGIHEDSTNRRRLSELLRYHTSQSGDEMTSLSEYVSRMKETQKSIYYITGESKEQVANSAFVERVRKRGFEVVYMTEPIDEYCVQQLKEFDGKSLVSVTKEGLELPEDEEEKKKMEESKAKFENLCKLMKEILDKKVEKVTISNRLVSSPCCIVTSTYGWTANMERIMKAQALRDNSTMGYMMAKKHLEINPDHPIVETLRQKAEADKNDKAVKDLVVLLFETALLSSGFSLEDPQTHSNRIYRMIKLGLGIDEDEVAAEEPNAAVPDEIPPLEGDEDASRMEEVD

Turning to `CSc1nc(-c2ccc(C)cc2C)c2c(C#N)c[nH]c2n1` [Example 1, 4-(2,4-dimethyl-phenyl)-2-methylsulfanyl-7H-pyrrolo[2,3-d]pyrimidine-5-carbonitrile], the IC50 was less than 500 nM.

For the molecule `CSc1nc(-c2ccccc2)c2c(C#N)c[nH]c2n1` [Example 2, 2-methylsulfanyl-4-phenyl-7H-pyrrolo[2,3-d]pyrimidine-5-carbonitrile], the IC50 was less than 500 nM.

`CSc1nc(-c2ccc(C#N)cc2)c2c(C#N)c[nH]c2n1` [Example 3, 4-(4-cyano-phenyl)-2-methylsulfanyl-7H-pyrrolo[2,3-d]pyrimidine-5-carbonitrile]: the IC50 was less than 500 nM.

Take `CSc1nc(-c2ccc(F)cc2C)c2c(C#N)c[nH]c2n1` [Example 4, 4-(2-methyl-4-fluoro-phenyl)-2-methylsulfanyl-7H-pyrrolo[2,3-d]pyrimidine-5-carbonitrile]: the IC50 is less than 500 nM.

Take `CSc1nc(-c2ccc(C)cc2C)c2c(Br)c[nH]c2n1` [Example 5, 5-Bromo-4-(2,4-dimethyl-phenyl)-2-methylsulfanyl-7H-pyrrolo[2,3-d]pyrimidine]: the IC50 is 500 to 10000 nM.

For `CSc1nc(-c2ccc(C)cc2C)c2c(C)c[nH]c2n1` [Example 6, 4-(2,4-dimethyl-phenyl)-5-methyl-2-methylsulfanyl-7H-pyrrolo[2,3-d]pyrimidine], the IC50 was in the range of 500 to 10000 nM.

In the case of `CCN(CC)CCOc1cccc(-c2nc(SC)nc3[nH]cc(C#N)c23)c1` [Example 7], the IC50 lay in the range of 500 to 10000 nM.

Turning to `Cc1ccc(-c2nc(Cl)nc3[nH]cc(C#N)c23)c(C)c1` [Example 8, 2-Chloro-4-(2,4-dimethyl-phenyl)-7H-pyrrolo[2,3-d]pyrimidine-5-carbonitrile], the IC50 is less than 500 nM.

As to `Cc1ccc(-c2ncnc3[nH]cc(C#N)c23)c(C)c1` [Example 9, 4-(2,4-dimethyl-phenyl)-7H-pyrrolo[2,3-d]pyrimidine-5-carbonitrile], the IC50 fell in the range of 500 to 10000 nM.

For `CSc1nc(-c2ccc(C)cc2C)c2c(C(F)(F)F)c[nH]c2n1` [Example 10, 4-(2,4-Dimethyl-phenyl)-2-methylsulfanyl-5-trifluoromethyl-7H-pyrrolo[2,3-d]pyrimidine], the IC50 was 500 to 10000 nM.

In the case of `CSc1nc(-c2ccc(C)cc2C)c2c(C3CC3)c[nH]c2n1` [Example 11, 5-Cyclopropyl-4-(2,4-dimethyl-phenyl)-2-methylsulfanyl-7H-pyrrolo[2,3-d]pyrimidine], the IC50 is more than 10000 nM.

In the case of `COc1nc(-c2ccc(F)cc2C)c2c(C#N)c[nH]c2n1` [Example 12, 4-(4-Fluoro-2-methyl-phenyl)-2-methoxy-7H-pyrrolo[2,3-d]pyrimidine-5-carbonitrile], the IC50 fell in the range of 500 to 10000 nM.

Turning to `Cc1cc(F)ccc1-c1nc(OCCN2CCCC2)nc2[nH]cc(C#N)c12` [Example 13, 4-(4-Fluoro-2-methyl-phenyl)-2-(2-pyrrolidin-1-yl-ethoxy)-7H-pyrrolo[2,3-d]pyrimidine-5-carbonitrile], the IC50 is more than 10000 nM.

With `Cc1cc(F)ccc1-c1nc(OCCN2CCOCC2)nc2[nH]cc(C#N)c12` [Example 14, 4-(4-Fluoro-2-methyl-phenyl)-2-(2-morpholin-4-yl-ethoxy)-7H-pyrrolo[2,3-d]pyrimidine-5-carbonitrile], the IC50 lay within 500 to 10000 nM.

With `Cc1cc(F)ccc1-c1nc(OCCN2CCCC2=O)nc2[nH]cc(C#N)c12` [Example 15, 4-(4-Fluoro-2-methyl-phenyl)-2-[2-(2-oxo-pyrrolidin-1-yl)-ethoxy]-7H-pyrrolo[2,3-d]pyrimidine-5-carbonitrile], the IC50 is 500 to 10000 nM.

`Cc1cc(F)ccc1-c1nc(N2CCN(C)CC2)nc2[nH]cc(C#N)c12` [Example 16, 4-(4-Fluoro-2-methyl-phenyl)-2-(4-methyl-piperazin-1-yl)-7H-pyrrolo[2,3-d]pyrimidine-5-carbonitrile]: the IC50 is more than 10000 nM.

`CNc1nc(-c2ccc(F)cc2C)c2c(C#N)c[nH]c2n1` [Example 17, 4-(4-Fluoro-2-methyl-phenyl)-2-methylamino-7H-pyrrolo[2,3-d]pyrimidine-5-carbonitrile]: the IC50 lay within 500 to 10000 nM.

With `CCc1nc(-c2ccc(F)cc2C)c2c(C#N)c[nH]c2n1` [Example 18, 2-Ethyl-4-(4-fluoro-2-methyl-phenyl)-7H-pyrrolo[2,3-d]pyrimidine-5-carbonitrile], the IC50 lay within 500 to 10000 nM.

Turning to `Cc1cc(F)ccc1-c1nc(SCCO)nc2[nH]cc(C#N)c12` [Example 20, 4-(4-Fluoro-2-methyl-phenyl)-2-(2-hydroxy-ethylsulfanyl)-7H-pyrrolo[2,3-d]pyrimidine-5-carbonitrile], the IC50 was less than 500 nM.

Turning to `Cc1cc(F)ccc1-c1nc(SCCN2CCOCC2)nc2[nH]cc(C#N)c12` [Example 21, 4-(4-Fluoro-2-methyl-phenyl)-2-(2-morpholin-4-yl-ethylsulfanyl)-7H-pyrrolo[2,3-d]pyrimidine-5-carbonitrile], the IC50 was less than 500 nM.

Regarding `COc1cc(-c2nc(SC)nc3[nH]cc(C#N)c23)c(Cl)cc1Cl` [Example 22, 4-(2,4-Dichloro-5-methoxy-phenyl)-2-methylsulfanyl-7H-pyrrolo[2,3-d]pyrimidine-5-carbonitrile], the IC50 was less than 500 nM.

`CCN(CC)CCSc1nc(-c2cc(OC)c(Cl)cc2Cl)c2c(C#N)c[nH]c2n1` [Example 23, 4-(2,4-Dichloro-5-methoxy-phenyl)-2-(2-diethylamino-ethylsulfanyl)-7H-pyrrolo[2,3-d]pyrimidine-5-carbonitrile]: the IC50 was less than 500 nM.

On to `COc1cc(-c2nc(OCCN3CCCC3=O)nc3[nH]cc(C#N)c23)c(Cl)cc1Cl` [Example 25, 4-(2,4-Dichloro-5-methoxy-phenyl)-2-[2-(2-oxo-pyrrolidin-1-yl)-ethoxy]-7H-pyrrolo[2,3-d]pyrimidine-5-carbonitrile], for which the IC50 was less than 500 nM.

On to `CSc1nc(-c2cc(OCCN3CCCC3)c(Cl)cc2Cl)c2c(C#N)c[nH]c2n1` [Example 26, 4-[2,4-Dichloro-5-(2-pyrrolidin-1-yl-ethoxy)-phenyl]-2-methylsulfanyl-7H-pyrrolo[2,3-d]pyrimidine-5-carbonitrile], for which the IC50 is less than 500 nM.

`CCN(CC)CCOc1cc(-c2nc(SC)nc3[nH]cc(C#N)c23)c(Cl)cc1Cl` [Example 27, 4-[2,4-Dichloro-5-(2-diethylamino-ethoxy)-phenyl]-2-methylsulfanyl-7H-pyrrolo[2,3-d]pyrimidine-5-carbonitrile]: the IC50 was less than 500 nM.

`COc1cc(Cl)c(-c2nc(SC)nc3[nH]cc(C#N)c23)cc1OC` [Example 29, 4-(2-Chloro-4,5-dimethoxy-phenyl)-2-methylsulfanyl-7H-pyrrolo[2,3-d]pyrimidine-5-carbonitrile]: the IC50 was less than 500 nM.

Consider `CCN(CC)CCSc1nc(-c2cc(OC)c(OC)cc2Cl)c2c(C#N)c[nH]c2n1` [Example 30, 4-(2-Chloro-4,5-dimethoxy-phenyl)-2-(2-diethylamino-ethylsulfanyl)-7H-pyrrolo[2,3-d]pyrimidine-5-carbonitrile], for which the IC50 is less than 500 nM.

`COc1ccc(-c2nc(OCCN3CCC(F)(F)CC3)nc3[nH]cc(C#N)c23)cc1OC` [Example 32, 4-(4,5-Dimethoxy-phenyl)-2-[2-(4,4-difluoro-piperidin-1-yl)-ethoxy]-7H-pyrrolo[2,3-d]pyrimidine-5-carbonitrile]: the IC50 was less than 500 nM.

In the case of `COc1ccc(-c2nc(OCCN3CCC(F)(F)C3)nc3[nH]cc(C#N)c23)cc1OC` [Example 33, 2-[2-(3,3-Difluoro-pyrrolidin-1-yl)-ethoxy]-4-(3,4-dimethoxy-phenyl)-7H-pyrrolo[2,3-d]pyrimidine-5-carbonitrile], the IC50 fell in the range of 500 to 10000 nM.

Consider `COc1ccc(-c2nc(OCCN3CC[C@H](F)C3)nc3[nH]cc(C#N)c23)cc1OC` [Example 34, 4-(3,4-Dimethoxy-phenyl)-2-[2-(3(S)-fluoro-pyrrolidin-1-yl)-ethoxy]-7H-pyrrolo[2,3-d]pyrimidine-5-carbonitrile], for which the IC50 was in the range of 500 to 10000 nM.

On to `COc1cc(Cl)c(-c2nc(OCCN3CC[C@H](F)C3)nc3[nH]cc(C#N)c23)cc1OC` [Example 35], for which the IC50 is less than 500 nM.

With `COc1cc(Cl)c(-c2nc(OCCN3CCC(F)(F)C3)nc3[nH]cc(C#N)c23)cc1OC` [Example 36], the IC50 is less than 500 nM.

Take `CCN(CC)CCSc1nc(-c2cc(OC)c(C#N)cc2Cl)c2c(C#N)c[nH]c2n1` [Example 37, 4-(2-Chloro-4-cyano-5-methoxy-phenyl)-2-(2-diethylamino-ethylsulfanyl)-7H-pyrrolo[2,3-d]pyrimidine-5-carbonitrile]: the IC50 was less than 500 nM.

With `CNC(=O)CSc1nc(-c2ccc(F)cc2C)c2c(C#N)c[nH]c2n1` [Example 38, 2-[5-Cyano-4-(4-fluoro-2-methyl-phenyl)-7H-pyrrolo[2,3-d]pyrimidin-2-ylsulfanyl]-N-methyl-acetamide], the IC50 is less than 500 nM.

Take `Cc1ccc(-c2ncnc3[nH]cc(C(N)=O)c23)c(C)c1` [Example 39, 4-(2,4-Dimethyl-phenyl)-7H-pyrrolo[2,3-d]pyrimidine-5-carboxylic Acid Amide]: the IC50 is more than 10000 nM.
